Experimental data: ChEMBL document CHEMBL1134382, “Estimation of binding affinities for selective thrombin inhibitors via Monte Carlo simulations” (J Med Chem, 2001)

Target: Prothrombin (Bos taurus, UniProt P00735)
Experiment: Binding affinity was determined against bovine thrombin.

Row | Structure (SMILES) | Ki
1 | CNC(N)c1ccc(C[C@H](NS(=O)(=O)c2ccc3ccccc3c2)C(=O)N2CCCCCC2)cc1 (stereo partly specified) | 45.5 nM
2 | CN(C(=O)[C@H](Cc1ccc(C(N)NN)cc1)NS(=O)(=O)c1ccc2ccccc2c1)C1CCCCC1 (stereo partly specified) | 152 nM
3 | CN(C(=O)[C@H](Cc1ccc(C(N)NN)cc1)NS(=O)(=O)c1ccc2ccccc2c1)C1CCCC1 (stereo partly specified) | 1.1 nM
4 | NC(N)c1ccc(C[C@@H](NC(=O)CNS(=O)(=O)c2ccc3ccccc3c2)C(=O)N2CCCCC2)cc1 | 6.5 nM
5 | CNC(N)c1ccc(C[C@@H](NC(=O)CNS(=O)(=O)c2ccc3ccccc3c2)C(=O)N2CCCCC2)cc1 (stereo partly specified) | 5370 nM
6 | NC(N)c1ccc(C[C@H](NS(=O)(=O)c2ccc3ccccc3c2)C(=O)N2CCCCCC2)cc1 | 52.4 nM

The next lines start with the values.

Row | Ki | Structure (SMILES)
7 | 247 nM | CN(C(=O)[C@H](Cc1ccc(C(N)NN)cc1)NS(=O)(=O)c1ccc2ccccc2c1)C1CC1 (stereo partly specified)
8 | 41 nM | CCCCN(C)C(=O)[C@H](Cc1ccc(C(N)NN)cc1)NS(=O)(=O)c1ccc2ccccc2c1 (stereo partly specified)
9 | 1.5 nM | NNC(N)c1ccc(C[C@H](NS(=O)(=O)c2ccc3ccccc3c2)C(=O)N2CCCCCC2)cc1 (stereo partly specified)
10 | 4320 nM | NNC(N)c1ccc(C[C@@H](NC(=O)CNS(=O)(=O)c2ccc3ccccc3c2)C(=O)N2CCCCC2)cc1 (stereo partly specified)

Target: Prothrombin (Homo sapiens, UniProt P00734)
Experiment: Binding affinity was determined against human thrombin

Row | Structure (SMILES) | Ki
11 | CN(C(=O)[C@H](Cc1ccc(C(N)NN)cc1)NS(=O)(=O)c1cccc2c1CCCC2)C1CCCC1 (stereo partly specified) | 3.8 nM
12 | CN(C(=O)[C@H](Cc1ccc(C(N)NN)cc1)NS(=O)(=O)c1ccc2c(c1)CCCCC2)C1CCCC1 (stereo partly specified) | 0.045 nM
13 | CN(C(=O)[C@H](Cc1ccc(C(N)NN)cc1)NS(=O)(=O)Cc1ccccc1)C1CCCC1 (stereo partly specified) | 18.4 nM
14 | CN(C(=O)[C@H](Cc1ccc(C(N)NN)cc1)NS(=O)(=O)c1ccc2ccccc2c1)C1CCCC1 (stereo partly specified) | 0.38 nM
15 | CN(C)c1cccc2c(S(=O)(=O)N[C@@H](Cc3ccc(C(N)NN)cc3)C(=O)N(C)C3CCCC3)cccc12 (stereo partly specified) | 0.3 nM
16 | CN(C(=O)[C@H](Cc1ccc(C(N)NN)cc1)NS(=O)(=O)c1ccc2cc3ccccc3cc2c1)C1CCCC1 (stereo partly specified) | 0.1 nM

More lines, now with the values ahead:

Row | Ki | Structure (SMILES)
17 | 11 nM | CS(=O)(=O)N1CCN(C(=O)[C@H](Cc2ccc(C(N)NN)cc2)NS(=O)(=O)c2ccc3ccccc3c2)CC1 (stereo partly specified)
18 | 8 nM | CN(C(=O)[C@H](Cc1ccc(C(N)NN)cc1)NS(=O)(=O)c1cccc2ccccc12)C1CCCC1 (stereo partly specified)
19 | 3.3 nM | CN(C(=O)[C@H](Cc1ccc(CCN)cc1)NS(=O)(=O)c1ccc2ccccc2c1)C1CCCC1
20 | 3300 nM | CCOC(=O)N1CCN(C(=O)[C@H](Cc2ccc(C(N)NN)cc2)NS(=O)(=O)c2ccc3ccccc3c2)CC1 (stereo partly specified)
21 | 0.12 nM | CN(C(=O)[C@H](Cc1ccc(C(N)NN)cc1)NS(=O)(=O)c1ccc2c(c1)CCCC2)C1CCCC1 (stereo partly specified)
